Data published in patent US5602161A, “Tetrazolylphenyl pivalate derivatives and medicinal composition containing the same as effective component” (Wakamoto Pharmaceutical Co., Ltd., priority 1994, dated 1997).
pIC50: −log10 of the molar value. Where a name gives a salt, the structure may show the parent alone.

These compounds were tested against T1, human sputum elastase (Homo sapiens, UniProt P08246) (assay: Inhibitory effect on elastase (human sputum), spectrophotometric assay with MeOSuc-Ala-Ala-Pro-Val-pNA). Settings: S: human sputum elastase; pH 8.0, 37° C.; read-out: IC50.
T1 sequence (P08246 30-247 limits assumed): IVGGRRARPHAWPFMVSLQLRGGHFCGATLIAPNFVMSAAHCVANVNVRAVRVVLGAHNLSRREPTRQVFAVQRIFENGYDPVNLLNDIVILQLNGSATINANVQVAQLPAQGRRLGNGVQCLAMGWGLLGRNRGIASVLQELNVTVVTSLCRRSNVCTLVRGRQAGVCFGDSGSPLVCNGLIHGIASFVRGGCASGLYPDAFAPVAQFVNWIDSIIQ
Type: biochemical
Protocol: Namely, it is a spectrophotometric assay using the synthesized substrate, methoxysuccinyl-alanyl-alanyl- prolyl-valyl-p-nitroanilide(MeOSuc-Ala-Ala-Pro-Val-pNA, Cambridge research biochemical Co.) which has high specificity on neutrophil elastase.
20 μl of a test compound of various concentrations and 20 μl of enzyme solution (13 unit/ml) were added to 400 μl of 0.1M sodium phosphate buffer (pH 8.0). The mixture was incubated at 37° C. for 5 min, and then 20 μl of the substrate was added to the mixture in a final volume of 460 μl. The reaction was conducted by incubating thus obtained mixture at 37° C. for 20 min. The reaction was stopped by the addition of 300 μl of 20% acetic acid into the reaction mixture, and then p-nitroanilide released was measured by the spectrophotometrically at 405 nm.
Inhibition percents of the test compounds were calculated by the following equation:
Inhibition %=[1-(OD 405 nm value of the testing sample-background)/(OD 405 nm value of the control-background)]×100
`CC(C)(C)C(=O)Oc1ccc(-c2nnn(Cc3ccc(C(=O)N[C@@H](Cc4ccccc4)C(=O)O)cc3)n2)cc1` gave a pIC50 of 7.24. With `CSCCC(NC(=O)c1ccc(Cn2nnc(-c3ccc(OC(=O)C(C)(C)C)cc3)n2)cc1)C(=O)O` (racemic) [Example 62, N-[4-[5-(4-Pivaloyloxyphenyl)tetrazol-2-ylmethyl]benzoyl]-DL-methionine] the pIC50 was 7.10. `CC(C)(C)C(=O)Oc1ccc(-c2nnn[nH]2)cc1` [Example 3, 4-(1H-Tetrazol-5-yl)phenyl pivalate] was tested, and the pIC50 was 5.70. Work on `CN(C)c1cc(-c2nnn(Cc3ccc(C(=O)O)cc3)n2)ccc1OC(=O)C(C)(C)C` [Example 8, 4-[5-(3-Dimethylamino-4-pivaloyloxyphenyl)tetrazol-2-ylmethyl]benzoic acid] yielded a pIC50 of 6.64. `CC(C)(C)OC(=O)Cn1nnc(-c2ccc(OC(=O)C(C)(C)C)cc2)n1` [Example 10, 4-[2-(t-Butoxycarbonylmethyl)tetrazol-5-yl]phenyl pivalate] showed a pIC50 of 6.10. `CC(C)(C)C(=O)Oc1ccc(-c2nnn(Cc3ccc([N+](=O)[O-])cc3)n2)cc1` [Example 25, 4-[2-(4-Nitrobenzyl)tetrazol-5-yl]phenyl pivalate] showed a pIC50 of 6.55. Work on `CC(C)(C)C(=O)Oc1ccc(-c2nnn(Cc3cccc([N+](=O)[O-])c3)n2)cc1` [Example 26, 4-[2-(3-Nitrobenzyl)tetrazol-5-yl]phenyl pivalate] yielded a pIC50 of 6.57. `CC(C)(C)C(=O)Oc1ccc(-c2nnn(Cc3ccccc3[N+](=O)[O-])n2)cc1` [Example 27, 4-[2-(2-Nitrobenzyl)tetrazol-5-yl]phenyl pivalate] showed a pIC50 of 7.05. `CC(C)(C)C(=O)Oc1ccc(-c2nnn(C(c3ccccc3)c3ccccc3)n2)cc1` [Example 28, 4-[2-(Diphenylmethyl)tetrazol-5-yl]phenyl pivalate] gave a pIC50 of 6.66. In the case of `CC(=O)c1ccc(Cn2nnc(-c3ccc(OC(=O)C(C)(C)C)cc3)n2)cc1` [Example 29, 4-[2-(4-Acetylbenzyl)tetrazol-5-yl]phenyl pivalate], the pIC50 was 7.00. `CC(C)(C)OC(=O)COc1ccccc1Cn1nnc(-c2ccc(OC(=O)C(C)(C)C)cc2)n1` [Example 30, t-Butyl 2-[5-(4-pivaloyloxyphenyl)tetrazol-2-ylmethyl]phenoxyacetate] gave a pIC50 of 6.42. `CC(C)(C)OC(=O)COc1cccc(Cn2nnc(-c3ccc(OC(=O)C(C)(C)C)cc3)n2)c1` [Example 31, t-Butyl 3-[5-(4-pivaloyloxyphenyl)tetrazol-2-ylmethyl]phenoxyacetate] showed a pIC50 of 7.00. In the case of `CC(C)(C)OC(=O)COc1ccc(Cn2nnc(-c3ccc(OC(=O)C(C)(C)C)cc3)n2)cc1` [Example 32, t-Butyl 4-[5-(4-pivaloyloxyphenyl)tetrazol-2-ylmethyl]phenoxyacetate], the pIC50 was 6.42. `CC(C)(C)C(=O)Oc1ccc(-c2nnn(C(C)(C)C)n2)cc1` [Example 36, 4-[2-(1,1-Dimethylethyl)tetrazol-5-yl]phenyl pivalate] showed a pIC50 of 6.10. `CN(C)CCn1nnc(-c2ccc(OC(=O)C(C)(C)C)cc2)n1` [Example 38, 4-[2-(2-Dimethylaminoethyl)tetrazol-5-yl]phenyl pivalate Hydrochloride] was tested, and the pIC50 was 6.10. Work on `CN(C(=O)OC(C)(C)C)c1ccc(Cn2nnc(-c3ccc(OC(=O)C(C)(C)C)cc3)n2)cc1` [Example 39, 4-[2-[4-(N-t-Butoxycarbonyl-N-methylamino)benzyl]tetrazol-5-yl]phenyl pivalate] yielded a pIC50 of 7.10. For `CN(C(=O)OC(C)(C)C)c1ccc(Cn2nnnc2-c2ccc(OC(=O)C(C)(C)C)cc2)cc1` [Example 40, 4-[1-[4-(N-t-Butoxycarbonyl-N-methylamino)benzyl]tetrazol-5-yl]phenyl pivalate], the pIC50 was 6.60. For `COc1ccc(COCCCCCn2nnc(-c3ccc(OC(=O)C(C)(C)C)cc3)n2)cc1` [Example 43, 4-[2-[5-(4-Methoxybenzyloxy)pentyl]tetrazol-5-yl]phenyl pivalate], the pIC50 was 6.89. `CC(C)(C)OC(=O)NCCn1nnc(-c2ccc(OC(=O)C(C)(C)C)cc2)n1` [Example 45, 4-[2-[2-(t-Butoxycarbonylamino)ethyl]tetrazol-5-yl]phenyl pivalate] showed a pIC50 of 6.89. `CC(C)(C)C(=O)Oc1ccc(-c2nnn(Cc3ccc(N4CCCC4)cc3)n2)cc1` [Example 50, 4-[2-(4-Pyrrolidinobenzyl)tetrazol-5-yl]phenyl pivalate] gave a pIC50 of 5.77. In the case of `CC(C)(C)C(=O)Oc1ccc(-c2nnn(Cc3ccccc3C(=O)O)n2)cc1` [Example 52, 2-[5-(4-Pivaloyloxyphenyl)tetrazol-2-ylmethyl]benzoic acid], the pIC50 was 6.46. `CC(C)(C)C(=O)Oc1ccc(-c2nnn(Cc3ccc(CC(=O)O)cc3)n2)cc1` [Example 53, 4-[5-(4-Pivaloyloxyphenyl)tetrazol-2-ylmethyl]phenylacetic acid] was tested, and the pIC50 was 6.96. `Cc1cc(-c2nnn(Cc3ccc(C(=O)O)cc3)n2)ccc1OC(=O)C(C)(C)C` [Example 55, 4-[5-(3-Methyl-4-pivaloyloxyphenyl)tetrazol-2-ylmethyl]benzoic acid] showed a pIC50 of 6.00. `COc1cc(-c2nnn(Cc3ccc(C(=O)O)cc3)n2)ccc1OC(=O)C(C)(C)C` [Example 56, 4-[5-(3-Methoxy-4-pivaloyloxyphenyl)tetrazol-2-ylmethyl]benzoic acid] was tested, and the pIC50 was 6.38. `C[C@H](NC(=O)c1ccc(Cn2nnc(-c3ccc(OC(=O)C(C)(C)C)cc3)n2)cc1)C(=O)O` [Example 57, N-[4-[5-(4-Pivaloyloxyphenyl)tetrazol-2-ylmethyl]benzoyl]-L-alanine] showed a pIC50 of 6.38. `CC(C)(C)C(=O)Oc1ccc(-c2nnn(Cc3ccc(C(=O)NCC(=O)O)cc3)n2)cc1` [Example 58, N-[4-[5-(4-pivaloyloxyphenyl)tetrazol-2-ylmethyl]benzoyl]glycine] was tested, and the pIC50 was 7.54. Compound `CC(C)(C)C(=O)Oc1ccc(-c2nnn(Cc3ccc(C(=O)N[C@@H](CCC(=O)O)C(=O)O)cc3)n2)cc1` [Example 61, N-[4-[5-(4-Pivaloyloxyphenyl)tetrazol-2-ylmethyl]benzoyl]-L-glutamic acid] has a pIC50 of 7.52. Work on `CC(C)(C)C(=O)Oc1ccc(-c2nnn(Cc3ccc(C(=O)NCCCCCC(=O)O)cc3)n2)cc1` [Example 68, 6-[N-[4-[5-(4-Pivaloyloxyphenyl)tetrazol-2-ylmethyl]benzoyl]amino]caproic acid] yielded a pIC50 of 6.70. With `CC(C)(C)C(=O)Oc1ccc(-c2nnn(C(C(=O)NCC(=O)O)c3ccccc3)n2)cc1` (stereo not drawn) [Example 70, N-[2-Phenyl-2-[5-(4-pivaloyloxyphenyl)tetrazol-2-yl]acetyl]glycine] the pIC50 was 6.00. With `CC(C)(C)C(=O)Oc1ccc(-c2nnn(Cc3ccc(C(=O)NCCN)cc3)n2)cc1` [Example 71, N-(2-Aminoethyl)-4-[5-(4-pivaloyloxyphenyl)tetrazol-2-ylmethyl]benzamide Hydrochloride] the pIC50 was 6.59. With `CC(C)(C)C(=O)Oc1ccc(-c2nnn(CCO)n2)cc1` [Example 72, 4-[2-(2-Hydroxyethyl)tetrazol-5-yl]phenyl pivalate] the pIC50 was 6.30. `CC(C)(C)C(=O)Oc1ccc(-c2nnn(Cc3ccc(N)cc3)n2)cc1` [Example 76, 4-[2-(4-Aminobenzyl)tetrazol-5-yl]phenyl pivalate] was tested, and the pIC50 was 6.74. `CC(C)(C)C(=O)Oc1ccc(-c2nnn(Cc3cccc(N)c3)n2)cc1` [Example 77, 4-[2-(3-Aminobenzyl)tetrazol-5-yl]phenyl pivalate] showed a pIC50 of 6.82. With `CC(C)(C)C(=O)Oc1ccc(-c2nnn(Cc3ccccc3NS(C)(=O)=O)n2)cc1` [Example 79, 4-[2-[2-(Methylsulfonylamino)benzyl]tetrazol-5-yl]phenyl pivalate] the pIC50 was 6.85. For `CC(C)(C)C(=O)Oc1ccc(-c2nnn(Cc3ccccc3OCC(=O)O)n2)cc1` [Example 81, 2-[5-(4-Pivaloyloxyphenyl)tetrazol-2-ylmethyl]phenoxyacetic acid], the pIC50 was 7.23. `CC(C)(C)C(=O)Oc1ccc(-c2nnn(Cc3cccc(OCC(=O)O)c3)n2)cc1` [Example 82, 3-[5-(4-Pivaloyloxyphenyl)tetrazol-2-ylmethyl]phenoxyacetic acid] gave a pIC50 of 7.04. `CC(C)(C)C(=O)Oc1ccc(-c2nnn(Cc3ccc(OCC(=O)O)cc3)n2)cc1` [Example 83, 4-[5-(4-Pivaloyloxyphenyl)tetrazol-2-ylmethyl]phenoxyacetic acid] gave a pIC50 of 7.08. For `CC(C)(C)C(=O)Oc1ccc(-c2nnn(Cc3ccccc3OCCN)n2)cc1` [Example 84, 4-[2-[2-(2-Aminoethoxy)benzyl]tetrazol-5-yl]phenyl pivalate Hydrochloride], the pIC50 was 6.14. For `CC(C)(C)C(=O)Oc1ccc(-c2nnn(Cc3cccc(OCCN)c3)n2)cc1` [Example 85, 4-[2-[3-(2-Aminoethoxy)benzyl]tetrazol-5-yl]phenyl pivalate Hydrochloride], the pIC50 was 7.11. In the case of `CC(C)(C)C(=O)Oc1ccc(-c2nnn(Cc3ccc(OCCN)cc3)n2)cc1` [Example 86, 4-[2-[4-(2-Aminoethoxy)benzyl]tetrazol-5-yl]phenyl pivalate Hydrochloride], the pIC50 was 7.10. Work on `CC(C)(C)C(=O)Oc1ccc(-c2nnn(Cc3ccc(NC(=O)CN)cc3)n2)cc1` [Example 87, 4-[2-[4-(Glycylamino)benzyl]tetrazol-5-yl]phenyl pivalate Hydrochloride] yielded a pIC50 of 7.24. Compound `COc1cc(-c2nnn(Cc3cccc(OCCN)c3)n2)ccc1OC(=O)C(C)(C)C` [Example 88, 4-[2-[3-(2-Aminoethoxy)benzyl]tetrazol-5-yl]-2-methoxyphenyl pivalate Hydrochloride] has a pIC50 of 6.19. `CC(C)(C)C(=O)Oc1ccc(-c2nnn(Cc3cccc(CCCN)c3)n2)cc1` [Example 89, 4-[2-[3-(3-Aminopropyl)benzyl]tetrazol-5-yl]phenyl pivalate Hydrochloride] gave a pIC50 of 6.77. `CNc1ccc(Cn2nnc(-c3ccc(OC(=O)C(C)(C)C)cc3)n2)cc1` [Example 90, 4-[2-(4-Methylaminobenzyl)tetrazol-5-yl]phenyl pivalate] gave a pIC50 of 6.96. Compound `CNc1ccc(Cn2nnnc2-c2ccc(OC(=O)C(C)(C)C)cc2)cc1` [Example 91, 4-[1-(4-Methylaminobenzyl)tetrazol-5-yl]phenyl pivalate] has a pIC50 of 6.24.
